Measurements as given in patent publication US12036225B2, “Use of ibezapolstat to promote microbiome health” (Acurx Pharmaceuticals, Inc., priority 2021, dated 2024).

Experiments:
C. difficile infection [1] = settings: literature (Gonzales-Luna); cited from earlier work
[2] = Phase 2a trial: plasma and fecal concentrations (PK); assay type: in vivo, human; settings: CDI patients
Description: Plasma levels were drawn at 2 and 4 hours after the first daily ibezapolstat administration on days 1, 5, and 10. Fecal samples were collected at baseline and daily during days 1-10 of ibezapolstat receipt. Plasma and fecal concentrations were assayed by AltaSciences (Laval, Quebec, Canada) and PK analyses were performed by Learn and Confirm Inc. (Montreal, Quebec, Canada).

C. difficile = assay: Phase 2a trial: stool culture for C. difficile on CCFA; assay type: in vivo, Clostridioides difficile; settings: CDI patients
Description: Stool samples were cultured for C. difficile growth on a selective cycloserine-cefoxitin fructose agar (CCFA) at 37° C. under anaerobic conditions for 48 hours. (Gonzales-Luna). Isolates were determined to be C. difficile based on growth and morphology and confirmed by PCR for C. difficile toxin and tpi genes. C. difficile was strain typed using a PCR-based ribotyping method as previously described. (Gonzales-Luna A J, Carlson T J, Dotson K M, et al. PCR ribotypes of Clostridioides difficile across Texas from 2011 to 2018 including emergence of ribotype 255. Emerg Microbes Infect 2020; 9(1): 341-7.) Minimum inhibitory concentrations (MICs) were determined for ibezapolstat by broth microdilution in 0.1% sodium taurocholate Brain Heart Infusion (BHI) media. (Begum K, Basseres E, Miranda J, et al. In Vitro Activity of Omadacycline, a New Tetracycline Analog, and Comparators against Clostridioides difficile. Antimicrob Agents Chemother 2020; 64(8).)

[3] = Phase 2a trial: safety assessments (adverse events); assay type: in vivo, human
Description: Safety evaluations included AE assessment, physical examination, vital signs, clinical laboratory tests (chemistry, hematology, and urinalysis), and electrocardiography. Safety endpoints for all subjects were recorded including nature, frequency, and severity of AEs. AEs were assessed at each visit beginning from the time of enrollment and classified according to the Medical Dictionary for Regulatory Activities (MedDRA version 15.0). AE severity (mild, moderate, or severe) and causality (unrelated, possibly related, or probably related to the study medication) were assessed by the investigator at each site.

C. difficile infection [4] = assay: Phase 2a open-label trial in CDI patients: clinical cure and sustained clinical cure; assay type: in vivo, human; settings: 10 CDI patients
Description: Phase 2a of this trial was an open-label cohort of 10 subjects from study centers in the United States. In this cohort, 10 patients with diarrhea caused by mild/moderate C. difficile diagnosed via toxin EIA+ were treated with ibezapolstat 450 mg orally, twice daily for 10 days. All patients were followed for recurrence for 28±2 days. Stool was collected during course of therapy and at follow up. Patient fecal samples were evaluated for C. difficile culture and microbiome changes.
The primary efficacy outcome measure was clinical cure at EOT defined as resolution of diarrhea in the 24-hour period preceding EOT and maintained for at least 48 hours post EOT. SCC was defined as clinical cure with no recurrence of CDI within 28 (±2) days after EOT.
An intent-to-treat analysis of patients receiving at least one dose of ibezapolstat was conducted. Descriptive statistics were calculated for efficacy, safety/tolerability, and PK data generated using SAS version 9.4 software (SAS Institute, Inc Cary, NC, USA). Microbiome summary plots and data visualization was prepared using R software version 4.1.1 (R Core Team 2021, Vienna, Austria). (R Core Team (2013). R: A language and environment for statistical computing. R Foundation for Statistical Computing, Vienna, Austria.) Alpha diversity for each sample was assessed with the VeganR package version 2.4-2 using the Shannon Diversity Index and Inverse Simpson Index. Differences in alpha diversity (Shannon Diversity and Inverse Simpson Indexes) and bile acids at baseline compared to during or after therapy were compared using linear regression models. Proportional changes of bacterial taxa over the 10-day dosing interval were calculated using linear regression models for taxa with at least a one percent proportional change during the study time period. A p value <0.05 was considered significant.

[5] = CDI patients receiving ibezapolstat
[6] = ibezapolstat 450 mg orally twice daily 10 days

SMILES: CCc1c(Cl)c(O)c(Cl)c(O)c1C(=O)O[C@H]1[C@H](O)[C@H](OC)[C@H](OC/C2=C\C=C\C[C@H](O)/C(C)=C/[C@H](CC)[C@@H](O[C@@H]3OC(C)(C)[C@@H](OC(=O)C(C)C)[C@H](O)[C@@H]3O)/C(C)=C/C(C)=C/C[C@@H]([C@@H](C)O)OC2=O)O[C@@H]1C [fidaxomicin]
- CDI recurrence rates lower than other treatments (C. difficile infection [1]): approximately 50%

SMILES: CN[C@H](CC(C)C)C(=O)N[C@H]1C(=O)N[C@@H](CC(N)=O)C(=O)N[C@H]2C(=O)N[C@H]3C(=O)N[C@H](C(=O)N[C@H](C(=O)O)c4cc(O)cc(O)c4-c4cc3ccc4O)[C@H](O)c3ccc(c(Cl)c3)Oc3cc2cc(c3O[C@@H]2O[C@H](CO)[C@@H](O)[C@H](O)[C@H]2O[C@H]2C[C@](C)(N)[C@H](O)[C@H](C)O2)Oc2ccc(cc2Cl)[C@H]1O [Vancomycin, vancomycin]
- patients having a recurring CDI after treatment is discontinued (C. difficile infection [1]): 20-25%

SMILES: O=c1[nH]c(NCc2ccc(Cl)c(Cl)c2)nc2ncn(CCN3CCOCC3)c12 [Ibezapolstat, 2-((3,4-dichlorobenzyl)amino)-7-(2-morpholinoethyl)-1,7-dihydro-6H-purin-6-one]
- stool samples with detectable concentration on day 38 [2]: Three of 4
- plasma concentrations, upper limit ([2]; 450 mg twice daily): ≤ 1000 ng/mL
- stool concentration, days 8-10 of therapy ([2]; 450 mg twice daily): > 1,000 μg/g stool
- concentration at 2 h ([2]; human, plasma, oral, 450 mg twice daily, read-out: plasma levels 2-hour post-dose): 234 to 299 ng/mL
- concentration at 4 h ([2]; human, plasma, oral, 450 mg twice daily, read-out: plasma levels 4-hour postdose): 373 to 578 ng/mL
- concentration at 2 days after EOT ([2]; human, stool, oral, 450 mg, read-out: stool concentration two days after EOT): 535000 ± 748000 ng/g
- concentration at 38 day ([2]; human, stool, oral, 450 mg, samples with detectable concentration): 136000 ± 161000 ng/g
- concentration at 3 day of therapy ([2]; human, stool, oral, 450 mg twice daily): 416000 ± 494000 ng/g
- C. difficile growth from stool samples after baseline (C. difficile; all sampling days other than baseline, 7-9 samples/day): did not grow C. difficile
- Eradication of colonic C. difficile (C. difficile; ibezapolstat 450 mg twice daily): complete eradication of colonic C. difficile by day three
- number of AEs reported ([3]; 10 CDI patients): Seven
- serious AEs ([3]; 10 CDI patients): None
- adverse event profile, in words ([3]; 10 CDI patients, ibezapolstat 450 mg twice daily 10 days): acceptable adverse event profile
- Adverse event Headache: Action taken with study medication [3, 5]: No
- Adverse event Headache: Frequency [3, 5]: Intermittent
- Adverse event Headache: Intensity [3, 5]: Mild
- Adverse event Headache: Outcome [3, 5]: Resolved
- Adverse event Headache: Relationship to study drug [3, 5]: Unrelated
- Adverse event Headache: Serious AE [3, 5]: No
- Adverse event Headache: Treatment required [3, 5]: No
- Adverse event Intertriginous Candidiasis: Action taken with study medication [3, 5]: No
- Adverse event Intertriginous Candidiasis: Frequency [3, 5]: Continuous
- Adverse event Intertriginous Candidiasis: Intensity [3, 5]: Moderate
- Adverse event Intertriginous Candidiasis: Outcome [3, 5]: Resolved
- Adverse event Intertriginous Candidiasis: Relationship to study drug [3, 5]: Unrelated
- Adverse event Intertriginous Candidiasis: Serious AE [3, 5]: No
- Adverse event Intertriginous Candidiasis: Treatment required [3, 5]: Yes
- Adverse event Migraine headache: Action taken with study medication [3, 5]: No
- Adverse event Migraine headache: Frequency [3, 5]: Continuous
- Adverse event Migraine headache: Intensity [3, 5]: Severe
- Adverse event Migraine headache: Outcome [3, 5]: Resolved
- Adverse event Migraine headache: Relationship to study drug [3, 5]: Unrelated
- Adverse event Migraine headache: Serious AE [3, 5]: No
- Adverse event Migraine headache: Treatment required [3, 5]: Yes
- Adverse event Nausea: Action taken with study medication [3, 5]: No
- Adverse event Nausea: Frequency [3, 5]: Intermittent
- Adverse event Nausea: Intensity [3, 5]: Moderate
- Adverse event Nausea: Outcome [3, 5]: Resolved
- Adverse event Nausea: Relationship to study drug [3, 5]: Probably
- Adverse event Nausea: Serious AE [3, 5]: No
- Adverse event Nausea: Treatment required [3, 5]: No
- Adverse event Vomiting: Action taken with study medication [3, 5]: No
- Adverse event Vomiting: Frequency [3, 5]: Once
- Adverse event Vomiting: Intensity [3, 5]: Moderate
- Adverse event Vomiting: Outcome [3, 5]: Resolved
- Adverse event Vomiting: Relationship to study drug [3, 5]: Probably
- Adverse event Vomiting: Serious AE [3, 5]: No
- Adverse event Vomiting: Treatment required [3, 5]: Yes
- patients with AEs ([3]; of the 10 patients): 4
- no recurrences of infection (C. difficile infection [4]; followed 28±2 days): 100%
- clinical cure at day 12 (C. difficile infection [4]; [6]): 100%
- infection eliminated (C. difficile infection [4]; [6]): 100%
- sustained clinical cure at day 38 (C. difficile infection [4]; [6]): 100%
